{"source": "ChEMBL document CHEMBL4813944", "about": "(Eur J Med Chem, 2021)", "key": {"[1]": {"experiment": "Cytotoxicity against human SH-SY5Y cells assessed as cell viability at 10 uM measured after 24 hrs by calcein-AM staining based fluorescence analysis", "conditions": "read-out: Activity"}, "[2]": {"experiment": "Cytotoxicity against human SH-SY5Y cells assessed as cell viability at 0.1 uM measured after 24 hrs by calcein-AM staining based fluorescence analysis", "conditions": "read-out: Activity"}, "[3]": {"experiment": "Cytotoxicity against human SH-SY5Y cells assessed as cell viability at 1 uM measured after 24 hrs by calcein-AM staining based fluorescence analysis", "conditions": "read-out: Activity"}, "SH-SY5Y [4]": {"system": "SH-SY5Y", "experiment": "Inhibition of Salsolinol-induced oxidative stress in human SH-SY5Y cells assessed as superoxide radical formation at 1000 uM measured after 24 hrs by DHE staining based fluorescence spectrophotometry (reference value: 100%)", "type": "functional", "parameters": "scale not given: the % may be the effect or the level left"}, "SH-SY5Y [5]": {"system": "SH-SY5Y", "experiment": "Inhibition of Salsolinol-induced oxidative stress in human SH-SY5Y cells assessed as reduction in superoxide radical formation at 1000 uM measured after 24 hrs by DHE staining based fluorescence microscopy", "type": "functional, cell-based"}, "[6]": {"experiment": "Inhibition of salsolinol-induced mitochondrial depolarization in human SH-SY5Y cells assessed as mitochondrial membrane potential at 100 uM measured after 24 hrs by JC-1 staining based flow cytometry (reference value: 45.3 +/-2.09%)", "type": "functional", "parameters": "scale not given: the % may be the effect or the level left"}, "SH-SY5Y [7]": {"system": "SH-SY5Y", "experiment": "Neuroprotective activity against salsolinol-induced neurotoxicity in human SH-SY5Y cells assessed as cell death at 1000 uM measured after 24 hrs by PI staining based analysis (reference value: 100%)", "type": "functional"}, "SH-SY5Y [8]": {"system": "SH-SY5Y", "experiment": "Inhibition of Salsolinol-induced oxidative stress in human SH-SY5Y cells assessed as reduction in superoxide radical formation measured after 24 hrs by DHE staining based fluorescence spectrophotometry", "type": "functional, cell-based", "conditions": "dose 10-1000 µM"}, "[9]": {"experiment": "Inhibition of salsolinol-induced mPTP opening in human SH-SY5Y cells assessed as fold change in fluorescence intensity at 1000 uM measured after 24 hrs by calcein AM/CoCl2 based fluorescence microscopic analysis (reference value: 0.49 +/-0.02)", "type": "functional"}, "SH-SY5Y [10]": {"system": "SH-SY5Y", "experiment": "Neuroprotective activity against salsolinol-induced neurotoxicity in human SH-SY5Y cells assessed as cell viability at 1000 uM measured after 24 hrs by calcein-AM staining based fluorescence analysis (reference value: 70.49 +/-0.51%)", "type": "functional", "conditions": "read-out: Activity"}, "SH-SY5Y [11]": {"system": "SH-SY5Y", "experiment": "Neuroprotective activity against salsolinol-induced neurotoxicity in human SH-SY5Y cells assessed as cell viability at 100 uM measured after 24 hrs by calcein-AM staining based fluorescence analysis (reference value: 70.49 +/-0.51%)", "type": "functional", "conditions": "read-out: Activity"}, "[12]": {"experiment": "Cytotoxicity against human SH-SY5Y cells assessed as cell viability at 100 uM measured after 24 hrs by calcein-AM staining based fluorescence analysis", "conditions": "read-out: Activity"}, "[13]": {"experiment": "Cytotoxicity against human SH-SY5Y cells assessed as cell viability at 1000 uM measured after 24 hrs by calcein-AM staining based fluorescence analysis", "conditions": "read-out: Activity"}, "[14]": {"experiment": "Inhibition of salsolinol-induced mitochondrial depolarization in human SH-SY5Y cells assessed as mitochondrial membrane potential at 1000 uM measured after 24 hrs by JC-1 staining based flow cytometry (reference value: 45.3 +/-2.09%)", "type": "functional", "parameters": "scale not given: the % may be the effect or the level left"}, "SH-SY5Y [15]": {"system": "SH-SY5Y", "experiment": "Inhibition of salsolinol-induced apoptosis in human SH-SY5Y cells assessed as caspase 3/7 activity at 1000 uM incubated for 24 hrs using Ac-DEVD-AMC as substrate by fluorescence analysis (reference value: 100%)", "type": "functional", "parameters": "scale not given: the % may be the effect or the level left"}, "SH-SY5Y [16]": {"system": "SH-SY5Y", "experiment": "Neuroprotective activity against salsolinol-induced neurotoxicity in human SH-SY5Y cells assessed as cell death at 100 uM measured after 24 hrs by PI staining based analysis (reference value: 100%)", "type": "functional"}, "SH-SY5Y [17]": {"system": "SH-SY5Y", "experiment": "Inhibition of salsolinol-induced apoptosis in human SH-SY5Y cells assessed as appearance of necrotic cells along with early and late apoptotic cells at 1000 uM measured after 24 hrs by AO/PIstaining based fluorescence microscopy", "type": "functional, cell-based"}, "SH-SY5Y [18]": {"system": "SH-SY5Y", "experiment": "Neuroprotective activity against salsolinol-induced neurotoxicity in human SH-SY5Y cells assessed as cell death at 10 uM measured after 24 hrs by PI staining based analysis (reference value: 100%)", "type": "functional"}, "SH-SY5Y [19]": {"system": "SH-SY5Y", "experiment": "Neuroprotective activity against salsolinol-induced neurotoxicity in human SH-SY5Y cells assessed as cell viability at 1 uM measured after 24 hrs by calcein-AM staining based fluorescence analysis (reference value: 70.49 +/-0.51%)", "type": "functional", "conditions": "read-out: Activity"}, "SH-SY5Y [20]": {"system": "SH-SY5Y", "experiment": "Neuroprotective activity against salsolinol-induced neurotoxicity in human SH-SY5Y cells assessed as reduction in cell death at 0.1 to 1 uM measured after 24 hrs by PI staining based analysis", "type": "functional", "conditions": "dose 0.1-1 µM"}, "SH-SY5Y [21]": {"system": "SH-SY5Y", "experiment": "Inhibition of glutamate-induced oxidative stress in human SH-SY5Y cells assessed as reduction in superoxide radical formation at 10 uM measured after 4 hrs by DHE staining based fluorescence microscopy", "type": "functional, cell-based"}, "SH-SY5Y [22]": {"system": "SH-SY5Y", "experiment": "Inhibition of glutamate-induced apoptosis in human SH-SY5Y cells assessed as caspase 3/7 activity at 10 uM incubated for 1 hr using Ac-DEVD-AMC as substrate by fluorescence analysis (reference value: 100%)", "type": "functional", "parameters": "scale not given: the % may be the effect or the level left"}, "SH-SY5Y [23]": {"system": "SH-SY5Y", "experiment": "Inhibition of glutamate-induced oxidative stress in human SH-SY5Y cells assessed as superoxide radical formation at 10 uM measured after 4 hrs by DHE staining based fluorescence spectrophotometry (reference value: 100%)", "type": "functional", "parameters": "scale not given: the % may be the effect or the level left"}, "SH-SY5Y [24]": {"system": "SH-SY5Y", "experiment": "Neuroprotective activity against glutamate-induced neurotoxicity in human SH-SY5Y cells assessed as cell death at 10 uM measured after 24 hrs by PI staining based assay (reference value: 100%)", "type": "functional"}}, "note": "Activity calls are given as the source filed them. The rule behind the calls is not given here.", "data": [{"molecule": "CC(=O)OC[C@H]1O[C@@H](n2cc(CO)nn2)[C@H](OC(C)=O)[C@@H](OC(C)=O)[C@H]1OC(C)=O", "values": [{"measurement": "viability at 24 h, 10 µM", "setting": "[1]", "value": 100, "unit": "%"}, {"measurement": "viability at 24 h, 0.1 µM", "setting": "[2]", "value": 109, "unit": "%"}, {"measurement": "viability at 24 h, 1 µM", "setting": "[3]", "value": 107, "unit": "%"}]}, {"molecule": "CC(=O)N[C@@H](CS)C(=O)O", "note": "[ACETYLCYSTEINE]", "values": [{"measurement": "Activity", "setting": "SH-SY5Y [4]", "value": 53.8, "unit": "%"}, {"measurement": "inhibition", "setting": "SH-SY5Y [5]", "value": "Active"}, {"measurement": "Activity", "setting": "[6]", "value": 66.4, "unit": "%"}, {"measurement": "Activity", "setting": "SH-SY5Y [7]", "value": 68.2, "unit": "%"}, {"measurement": "inhibition", "setting": "SH-SY5Y [8]", "value": "Dose-Dependent Effect"}, {"measurement": "fold change (FC)", "setting": "[9]", "value": 0.76}, {"measurement": "viability at 1000 µM", "setting": "SH-SY5Y [10]", "value": 89, "unit": "%"}, {"measurement": "viability at 100 µM", "setting": "SH-SY5Y [11]", "value": 82.3, "unit": "%"}, {"measurement": "viability at 24 h, 10 µM", "setting": "[1]", "value": 108, "unit": "%"}, {"measurement": "viability at 24 h, 100 µM", "setting": "[12]", "value": 114, "unit": "%"}, {"measurement": "viability at 24 h, 1000 µM", "setting": "[13]", "value": 120, "unit": "%"}, {"measurement": "Activity", "setting": "[14]", "value": 69.7, "unit": "%"}, {"measurement": "Activity", "setting": "SH-SY5Y [15]", "value": 79.3, "unit": "%"}, {"measurement": "Activity", "setting": "SH-SY5Y [16]", "value": 72.5, "unit": "%"}, {"measurement": "Activity", "setting": "SH-SY5Y [17]", "value": "Active"}]}, {"molecule": "C=C(C(=O)O)[C@@H]1CC[C@]2(COC(C)=O)CC[C@]3(C)[C@H](CC[C@@H]4[C@@]5(C)CC[C@H](OC(C)=O)C(C)(C)[C@@H]5CC[C@]43C)[C@@H]12", "values": [{"measurement": "viability at 24 h, 10 µM", "setting": "[1]", "value": 11.6, "unit": "%"}, {"measurement": "viability at 24 h, 0.1 µM", "setting": "[2]", "value": 102, "unit": "%"}, {"measurement": "viability at 24 h, 1 µM", "setting": "[3]", "value": 102, "unit": "%"}]}, {"molecule": "C=C(C(=O)OCc1cn([C@@H]2O[C@H](COC(C)=O)[C@H](OC(C)=O)[C@H](OC(C)=O)[C@H]2OC(C)=O)nn1)[C@@H]1CC[C@]2(COC(C)=O)CC[C@]3(C)[C@H](CC[C@@H]4[C@@]5(C)CC[C@H](OC(C)=O)C(C)(C)[C@@H]5CC[C@]43C)[C@@H]12", "values": [{"measurement": "Activity", "setting": "SH-SY5Y [18]", "value": 68.7, "unit": "%"}, {"measurement": "viability at 24 h, 10 µM", "setting": "[1]", "value": 130, "unit": "%"}, {"measurement": "viability at 24 h, 0.1 µM", "setting": "[2]", "value": 140, "unit": "%"}, {"measurement": "viability at 1 µM", "setting": "SH-SY5Y [19]", "value": 90.9, "unit": "%"}, {"measurement": "viability at 24 h, 1 µM", "setting": "[3]", "value": 139, "unit": "%"}]}, {"molecule": "C=C(Cn1cc(-c2cccnc2)nn1)[C@@H]1CC[C@]2(C(=O)O)CC[C@]3(C)[C@H](CC[C@@H]4[C@@]5(C)CC[C@H](OC(C)=O)C(C)(C)[C@@H]5CC[C@]43C)[C@@H]12", "values": [{"measurement": "viability at 24 h, 10 µM", "setting": "[1]", "value": 57.6, "unit": "%"}, {"measurement": "viability at 24 h, 0.1 µM", "setting": "[2]", "value": 106, "unit": "%"}, {"measurement": "viability at 1 µM", "setting": "SH-SY5Y [19]", "value": 84.3, "unit": "%"}, {"measurement": "viability at 24 h, 1 µM", "setting": "[3]", "value": 124, "unit": "%"}, {"measurement": "Activity", "setting": "SH-SY5Y [20]", "value": "inactive"}]}, {"molecule": "CC(=O)N(O)CCCCCNC(=O)CCC(=O)N(O)CCCCCNC(=O)CCC(=O)N(O)CCCCCN", "note": "[DEFEROXAMINE]", "values": [{"measurement": "inhibition", "setting": "SH-SY5Y [21]", "value": "inactive"}, {"measurement": "Activity", "setting": "SH-SY5Y [22]", "value": 77.4, "unit": "%"}, {"measurement": "Activity", "setting": "SH-SY5Y [23]", "value": 87.2, "unit": "%"}, {"measurement": "Activity", "setting": "SH-SY5Y [24]", "value": 79.5, "unit": "%"}]}]}
